Common to all, as to experiment: microbe, parasite or virus in culture
Common to all, as to format: cell-based, influenza A virus
What all share (details): for Drug sensitivity: sensitivity of the strain to the named drug

For assay [1], the system named is A/North Carolina/39/2009 (H1N1).
Assay [2] deals with A/Washington/29/2009 (H1N1).
Assay [3] has as its system A/Texas/04/2009 (H1N1).
Assay [4] deals with A/Switzerland/9715293/2013 (H3N2).
Assay [5] concerns A/Denmark/528/2009 (H1N1).
In assay [6] the test system is A/WSN/1933 (H1N1).
For assay [7], the system named is A/California/07/2009 (H1N1).

The values that follow come from article PMC6482079 (European journal of pharmaceutical sciences : official …, 2019).

Consider `NC12CC3CC(CC(C3)C1)C2` [Amantadine, amantadine], for which the Drug sensitivity result in assay [1] was “Amantadine Resistant Oseltamivir Resistant”; in assay [2], “Amantadine Resistant Oseltamivir Resistant”; in assay [3], “Amantadine Resistant Oseltamivir Resistant”; in assay [4], “Amantadine Resistant Oseltamivir Sensitive”; in assay [5], “Amantadine Resistant Oseltamivir Resistant”; in assay [6], “Amantadine Resistant Oseltamivir Sensitive”. For the same molecule, the Drug sensitivity result in assay [7] is “Amantadine Resistant Oseltamivir Sensitive”.

On to `Cc1cc(OCc2nnc(SC3CCCC3)n2-c2cccnc2)ccc1-c1ccc(S(C)(=O)=O)cc1` [NMS-873], for which the “SI (selectivity index)” value was found to be 78 in assay [1] (CC50/EC50); 66 in assay [2] (CC50/EC50); 71 in assay [3] (CC50/EC50); 129 in assay [4] (CC50/EC50); 70 in assay [5] (CC50/EC50); 74 in assay [6] (CC50/EC50). In addition, the “SI (selectivity index)” value in assay [7] (CC50/EC50) is 49. The EC50 (commonly the concentration needed to bring the measured effect to its halfway point) in assay [1] (Influenza A virus, H1N1, MDCK) was determined as 0.035 ± 0.005 µM; in assay [2] (Influenza A virus, H1N1, MDCK), 0.041 ± 0.005 µM; in assay [3] (Influenza A virus, H1N1, MDCK), 0.038 ± 0.005 µM; in assay [4] (Influenza A virus, H3N2, MDCK), 0.021 ± 0.002 µM; in assay [5] (Influenza A virus, H1N1, MDCK), 0.039 ± 0.004 µM; in assay [6] (Influenza A virus, H1N1|WSN, MDCK), 0.037 ± 0.002 µM. Further, in assay [7] (Influenza A virus, H1N1, MDCK), the half-maximal effective concentration (EC50) was found to be 0.056 ± 0.005 µM.

With `CCC(CC)O[C@@H]1C=C(C(=O)O)C[C@H](N)[C@H]1NC(C)=O` [Oseltamivir carboxylate], the Drug sensitivity entry in assay [1] is on record as “Amantadine Resistant Oseltamivir Resistant”; in assay [2], “Amantadine Resistant Oseltamivir Resistant”; in assay [3], “Amantadine Resistant Oseltamivir Resistant”; in assay [4], “Sensitive”; in assay [5] it was “Amantadine Resistant Oseltamivir Resistant”; in assay [6] it was “Sensitive”. The Drug sensitivity entry in assay [7] is “Sensitive”.
